Results as given in patent US11104593B2, “Compositions exhibiting synergy in biofilm control” (SOLENIS TECHNOLOGIES, L.P., priority 2017, dated 2021).

Tested on: Pseudomonas putida biofilms
Experiment: Biofilm eradication (MBEC) test: viable plate counts of biofilms on stainless steel 316 coupons from a CDC Biofilm reactor after two hours of treatment
Format: cell-based
Settings: 20 mg/L MCA alone, viable biofilm population vs untreated control, 2 h, 28° C.
Method: In this work the efficacy of the agents alone and in combination were determined by measuring the number of viable cells in model biofilms remaining after treatment. The Minimum Biofilm Eradication value (MBEC) is defined as a 95% reduction in the number of viable cells compared to the untreated control.
Dose response studies were performed to determine the Minimum Biofilm Eradication Concentration (MBEC) for monochloramine and PEI alone. The MBEC is defined as the concentration of agent that reduces the viable biofilm population by 95% of the untreated control value as measured by viable plate counts. Experiments were then performed to determine the result of combining the two agents, oxidizing biocide monochloramine and dispersant PEI alone, on biofilm populations. The experiments examined three concentrations of monochloramine with four concentrations of PEI alone.
M9YG media is a simple minimal salt medium supplemented with 500 mg/L glucose and 0.01% yeast extract. The salts composition was intended to mimic a typical cooling tower water composition. […]
Briefly, biofilms were grown on stainless steel 316 coupons in a CDC Biofilm reactor using M9YG minimal salts growth media for a period of twenty-four hours. […] Viable cells released into the fluid were then determined by a plating method.

With NCl [MCA, monochloramine] the “% reduction” value was 93.58% and the “% reduction” value (listed as monochloramine) was “greater than 90%”.
